ChEMBL document CHEMBL3784924, “Identification of a 5-[3-phenyl-(2-cyclic-ether)-methylether]-4-aminopyrrolo[2,3-d]pyrimidine series of IGF-1R inhibitors” (Bioorg Med Chem Lett, 2016)

Assays:
[1] = target: Phosphatidylinositol 4,5-bisphosphate 3-kinase catalytic subunit beta isoform (Homo sapiens, UniProt P42338); test: Inhibition of PI3K-beta (unknown origin)
[2] = target: Tyrosine-protein kinase JAK1 (Homo sapiens, UniProt P23458); test: Inhibition of Jak1 (unknown origin)
[3] = target: Epidermal growth factor receptor (Homo sapiens, UniProt P00533); test: Inhibition of Her1 (unknown origin)
[4] = target: Phosphatidylinositol 4,5-bisphosphate 3-kinase catalytic subunit alpha isoform (Homo sapiens, UniProt P42336); test: Inhibition of PI3K-alpha (unknown origin)
[5] = target: Voltage-gated inwardly rectifying potassium channel KCNH2 (Homo sapiens, UniProt Q12809); test: Inhibition of human ERG by dofetilide binding assay
Liver microsome [6] = test: Drug metabolism in human liver microsomes assessed as 3-(4-amino-7-((cis)-3-(azetidin-1-ylmethyl)cyclobutyl)-7H-pyrrolo[2,3-d]pyrimidin-5-yl)phenol formation by LC-MS/MS analysis; type: ADME
[7] = target: Insulin-like growth factor 1 receptor (Homo sapiens, UniProt P08069); test: Inhibition of IGF-1 receptor (unknown origin)
[8] = Permeability of compound at >= pH 7 by PAMPA assay; type: ADME
[9] = Solubility of compound in water; type: physicochemical; conditions: buffer
[10] = target: Tyrosine-protein kinase Lck (Homo sapiens, UniProt P06239); test: Inhibition of Lck (unknown origin)
[11] = target: Vascular endothelial growth factor receptor 2 (Homo sapiens, UniProt P35968); test: Inhibition of KDR (unknown origin)
Cytochrome P450 2C9 = Cytochrome P450 2C9 (Homo sapiens, UniProt P11712); test: Effect on human CYP2C9 at 10 uM; type: ADME
Cytochrome P450 3A4 = Cytochrome P450 3A4 (Homo sapiens, UniProt P08684); test: Effect on human CYP3A4 at 10 uM; type: ADME
Ephrin type-B receptor 4 = target: T1, Ephrin type-B receptor 4 (Homo sapiens, UniProt P54760); test: Inhibition of EphB4 receptor (unknown origin)
T1 sequence (P54760 whole entry): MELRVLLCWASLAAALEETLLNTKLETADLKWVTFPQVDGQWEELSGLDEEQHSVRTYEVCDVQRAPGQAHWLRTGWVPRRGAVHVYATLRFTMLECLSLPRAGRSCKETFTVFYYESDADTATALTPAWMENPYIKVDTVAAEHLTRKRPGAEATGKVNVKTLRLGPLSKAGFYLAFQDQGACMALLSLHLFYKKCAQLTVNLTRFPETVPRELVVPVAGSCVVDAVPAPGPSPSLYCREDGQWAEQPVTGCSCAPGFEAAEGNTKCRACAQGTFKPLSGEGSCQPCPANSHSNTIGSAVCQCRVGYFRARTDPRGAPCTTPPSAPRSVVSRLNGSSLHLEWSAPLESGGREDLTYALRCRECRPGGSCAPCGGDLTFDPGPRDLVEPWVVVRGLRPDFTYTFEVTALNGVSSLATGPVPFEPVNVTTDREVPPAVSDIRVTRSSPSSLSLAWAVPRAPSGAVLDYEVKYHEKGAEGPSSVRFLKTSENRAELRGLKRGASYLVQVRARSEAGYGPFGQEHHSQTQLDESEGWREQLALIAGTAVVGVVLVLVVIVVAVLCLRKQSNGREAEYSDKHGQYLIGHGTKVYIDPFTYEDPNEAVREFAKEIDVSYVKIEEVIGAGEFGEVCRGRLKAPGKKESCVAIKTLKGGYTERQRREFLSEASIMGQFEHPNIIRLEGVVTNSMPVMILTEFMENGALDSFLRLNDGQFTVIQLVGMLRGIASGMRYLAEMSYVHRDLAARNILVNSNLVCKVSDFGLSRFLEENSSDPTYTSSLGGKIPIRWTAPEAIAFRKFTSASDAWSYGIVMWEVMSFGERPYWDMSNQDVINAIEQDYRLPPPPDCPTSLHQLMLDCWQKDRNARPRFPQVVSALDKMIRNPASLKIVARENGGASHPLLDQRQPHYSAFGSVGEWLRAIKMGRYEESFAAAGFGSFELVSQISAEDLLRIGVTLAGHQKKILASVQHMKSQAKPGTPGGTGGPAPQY

[12] = target: Proto-oncogene tyrosine-protein kinase receptor Ret (Homo sapiens, UniProt P07949); test: Inhibition of Ret (unknown origin)
Insulin receptor = Insulin receptor (Homo sapiens, UniProt P06213); test: Inhibition of Ins receptor (unknown origin)
Cytochrome P450 2D6 = Cytochrome P450 2D6 (Homo sapiens, UniProt P10635); test: Effect on human CYP2D6 at 10 uM; type: ADME
Liver microsome [13] = test: Drug level in human liver microsomes treated with NVP-AEW541 by LC-MS/MS analysis; type: ADME

Chain of Phosphatidylinositol 4,5-bisphosphate 3-kinase catalytic subunit alpha isoform (P42336 whole entry, canonical isoform): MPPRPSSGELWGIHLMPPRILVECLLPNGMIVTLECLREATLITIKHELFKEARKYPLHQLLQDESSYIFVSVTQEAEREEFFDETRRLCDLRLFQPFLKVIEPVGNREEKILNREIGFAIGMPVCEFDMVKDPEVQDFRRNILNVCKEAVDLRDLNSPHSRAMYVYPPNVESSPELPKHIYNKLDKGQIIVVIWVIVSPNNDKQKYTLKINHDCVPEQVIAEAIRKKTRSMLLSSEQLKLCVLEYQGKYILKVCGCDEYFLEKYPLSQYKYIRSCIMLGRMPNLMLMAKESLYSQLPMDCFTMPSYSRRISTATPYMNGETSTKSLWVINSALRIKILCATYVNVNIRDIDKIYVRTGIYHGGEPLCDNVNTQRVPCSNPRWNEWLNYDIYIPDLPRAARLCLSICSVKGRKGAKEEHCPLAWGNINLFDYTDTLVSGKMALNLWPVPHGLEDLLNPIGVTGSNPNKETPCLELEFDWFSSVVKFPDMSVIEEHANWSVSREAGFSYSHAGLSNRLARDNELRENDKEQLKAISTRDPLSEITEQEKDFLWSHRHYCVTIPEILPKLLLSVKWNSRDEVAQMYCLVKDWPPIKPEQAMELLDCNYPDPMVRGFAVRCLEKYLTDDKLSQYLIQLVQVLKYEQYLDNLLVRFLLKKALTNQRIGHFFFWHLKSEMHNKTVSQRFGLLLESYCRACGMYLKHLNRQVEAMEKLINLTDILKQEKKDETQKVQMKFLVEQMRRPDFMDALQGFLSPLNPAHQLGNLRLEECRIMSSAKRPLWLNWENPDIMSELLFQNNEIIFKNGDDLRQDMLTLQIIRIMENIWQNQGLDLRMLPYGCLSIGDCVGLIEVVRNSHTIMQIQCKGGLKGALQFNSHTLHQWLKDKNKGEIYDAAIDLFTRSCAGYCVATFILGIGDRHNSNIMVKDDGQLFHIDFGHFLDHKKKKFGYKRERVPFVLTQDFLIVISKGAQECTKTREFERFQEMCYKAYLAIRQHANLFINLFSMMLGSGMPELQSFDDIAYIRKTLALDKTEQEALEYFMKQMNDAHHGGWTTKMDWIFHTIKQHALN
Chain of Epidermal growth factor receptor (P00533 whole entry, canonical isoform): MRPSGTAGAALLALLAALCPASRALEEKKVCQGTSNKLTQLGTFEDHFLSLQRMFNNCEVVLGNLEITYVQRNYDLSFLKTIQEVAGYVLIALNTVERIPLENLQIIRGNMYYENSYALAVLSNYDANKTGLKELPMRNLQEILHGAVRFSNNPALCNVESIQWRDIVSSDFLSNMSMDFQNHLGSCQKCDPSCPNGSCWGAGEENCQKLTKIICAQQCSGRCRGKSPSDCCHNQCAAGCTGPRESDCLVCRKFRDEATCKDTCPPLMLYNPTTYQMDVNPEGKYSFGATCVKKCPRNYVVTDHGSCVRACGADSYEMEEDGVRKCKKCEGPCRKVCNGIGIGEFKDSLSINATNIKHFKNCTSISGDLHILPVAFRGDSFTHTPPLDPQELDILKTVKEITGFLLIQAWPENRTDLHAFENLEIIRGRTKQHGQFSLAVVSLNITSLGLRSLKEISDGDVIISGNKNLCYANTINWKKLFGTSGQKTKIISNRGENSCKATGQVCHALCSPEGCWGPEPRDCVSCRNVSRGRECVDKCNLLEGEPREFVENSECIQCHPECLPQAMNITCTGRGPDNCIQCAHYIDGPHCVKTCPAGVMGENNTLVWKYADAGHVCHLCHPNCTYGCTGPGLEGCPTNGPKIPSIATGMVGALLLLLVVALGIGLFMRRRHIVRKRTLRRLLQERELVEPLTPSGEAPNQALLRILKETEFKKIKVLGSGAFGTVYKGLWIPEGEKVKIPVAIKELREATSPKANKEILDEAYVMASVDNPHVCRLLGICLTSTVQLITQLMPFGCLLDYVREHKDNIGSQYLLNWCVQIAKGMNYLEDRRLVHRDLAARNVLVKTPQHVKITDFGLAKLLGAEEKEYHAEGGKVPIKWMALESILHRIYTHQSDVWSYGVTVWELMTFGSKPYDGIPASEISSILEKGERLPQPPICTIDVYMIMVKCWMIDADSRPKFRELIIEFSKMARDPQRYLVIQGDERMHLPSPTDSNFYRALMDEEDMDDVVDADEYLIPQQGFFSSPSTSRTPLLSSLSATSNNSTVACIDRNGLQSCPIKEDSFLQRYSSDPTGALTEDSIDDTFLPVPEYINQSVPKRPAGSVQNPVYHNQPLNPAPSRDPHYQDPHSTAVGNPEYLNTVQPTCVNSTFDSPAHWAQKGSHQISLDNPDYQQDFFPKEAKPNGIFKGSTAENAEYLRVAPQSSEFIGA
Chain of Phosphatidylinositol 4,5-bisphosphate 3-kinase catalytic subunit beta isoform (P42338 whole entry, canonical isoform): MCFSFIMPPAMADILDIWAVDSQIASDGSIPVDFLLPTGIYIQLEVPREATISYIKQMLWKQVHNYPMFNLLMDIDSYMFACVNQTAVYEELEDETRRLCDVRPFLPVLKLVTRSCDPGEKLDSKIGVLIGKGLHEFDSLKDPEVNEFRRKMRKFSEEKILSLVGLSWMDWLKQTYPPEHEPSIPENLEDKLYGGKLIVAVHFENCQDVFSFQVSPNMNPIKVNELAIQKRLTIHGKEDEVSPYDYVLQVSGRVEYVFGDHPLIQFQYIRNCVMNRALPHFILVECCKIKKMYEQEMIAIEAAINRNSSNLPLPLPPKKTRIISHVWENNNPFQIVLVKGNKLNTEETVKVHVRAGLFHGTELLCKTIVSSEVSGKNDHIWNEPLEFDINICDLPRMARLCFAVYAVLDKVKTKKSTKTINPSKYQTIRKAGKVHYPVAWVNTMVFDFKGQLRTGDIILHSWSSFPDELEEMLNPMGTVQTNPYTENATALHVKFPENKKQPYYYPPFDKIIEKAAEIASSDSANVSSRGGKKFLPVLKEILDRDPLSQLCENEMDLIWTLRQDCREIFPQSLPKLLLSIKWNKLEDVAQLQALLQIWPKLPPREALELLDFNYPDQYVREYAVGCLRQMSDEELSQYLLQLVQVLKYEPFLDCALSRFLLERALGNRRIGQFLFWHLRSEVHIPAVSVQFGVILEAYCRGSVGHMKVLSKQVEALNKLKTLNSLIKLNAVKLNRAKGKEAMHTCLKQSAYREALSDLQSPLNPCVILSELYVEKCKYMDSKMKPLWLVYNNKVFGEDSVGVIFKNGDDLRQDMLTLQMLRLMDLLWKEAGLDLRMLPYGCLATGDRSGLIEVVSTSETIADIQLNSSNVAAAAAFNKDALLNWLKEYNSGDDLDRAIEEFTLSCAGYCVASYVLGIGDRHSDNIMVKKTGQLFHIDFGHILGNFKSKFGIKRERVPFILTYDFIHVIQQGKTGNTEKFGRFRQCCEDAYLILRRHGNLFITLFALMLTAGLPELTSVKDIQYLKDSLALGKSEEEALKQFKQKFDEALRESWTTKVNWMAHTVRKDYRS
Chain of Insulin-like growth factor 1 receptor (P08069 31-736 limits assumed): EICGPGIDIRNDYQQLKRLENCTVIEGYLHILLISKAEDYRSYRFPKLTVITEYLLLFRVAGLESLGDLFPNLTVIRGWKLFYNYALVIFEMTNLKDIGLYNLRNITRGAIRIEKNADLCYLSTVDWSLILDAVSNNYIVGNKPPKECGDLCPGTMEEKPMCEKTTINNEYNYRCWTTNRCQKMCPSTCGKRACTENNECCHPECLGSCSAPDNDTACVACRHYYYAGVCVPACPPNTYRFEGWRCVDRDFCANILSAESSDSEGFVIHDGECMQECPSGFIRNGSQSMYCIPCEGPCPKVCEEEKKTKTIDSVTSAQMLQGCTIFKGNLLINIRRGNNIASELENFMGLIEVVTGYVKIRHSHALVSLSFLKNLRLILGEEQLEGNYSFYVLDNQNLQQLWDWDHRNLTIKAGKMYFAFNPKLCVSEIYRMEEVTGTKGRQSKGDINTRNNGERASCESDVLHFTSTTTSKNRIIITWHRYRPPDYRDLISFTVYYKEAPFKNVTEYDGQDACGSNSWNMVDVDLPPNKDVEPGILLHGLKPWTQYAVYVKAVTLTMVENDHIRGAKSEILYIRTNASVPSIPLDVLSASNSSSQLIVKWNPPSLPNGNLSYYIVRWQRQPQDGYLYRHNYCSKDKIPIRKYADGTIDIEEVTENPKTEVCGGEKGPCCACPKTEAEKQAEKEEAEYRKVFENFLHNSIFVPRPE
Chain of Insulin-like growth factor 1 receptor (P08069 741-1367 limits assumed): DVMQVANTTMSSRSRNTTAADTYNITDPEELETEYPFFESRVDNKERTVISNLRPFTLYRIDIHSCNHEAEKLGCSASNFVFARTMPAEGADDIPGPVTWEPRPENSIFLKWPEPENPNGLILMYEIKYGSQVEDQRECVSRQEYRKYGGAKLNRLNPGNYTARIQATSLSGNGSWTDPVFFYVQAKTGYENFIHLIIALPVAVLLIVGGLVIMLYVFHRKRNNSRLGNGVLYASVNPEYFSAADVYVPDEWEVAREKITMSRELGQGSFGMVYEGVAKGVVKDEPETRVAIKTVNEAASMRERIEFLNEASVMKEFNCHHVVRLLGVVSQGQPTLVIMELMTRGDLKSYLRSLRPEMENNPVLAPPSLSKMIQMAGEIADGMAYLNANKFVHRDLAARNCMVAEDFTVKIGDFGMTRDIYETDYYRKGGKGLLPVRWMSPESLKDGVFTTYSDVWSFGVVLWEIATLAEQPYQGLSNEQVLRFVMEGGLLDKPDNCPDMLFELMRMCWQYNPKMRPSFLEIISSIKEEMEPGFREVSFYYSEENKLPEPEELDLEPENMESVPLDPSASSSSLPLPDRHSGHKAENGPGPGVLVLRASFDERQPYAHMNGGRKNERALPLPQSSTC

Q: Which IC50 [1] does the source give for `Nc1ncnc2c1c(-c1cccc(OCc3ccccc3)c1)cn2[C@H]1C[C@@H](CN2CCC2)C1` here?
A: Its IC50 is over 9000 nM.

Q: And the IC50 [2]?
A: The IC50 was over 10000 nM.

Q: And the IC50 [3]?
A: The IC50 was over 10000 nM.

Q: And the IC50 [4]?
A: Its IC50 is over 9000 nM.

Q: And the IC50 [5]?
A: The IC50 was 130 nM.

Q: What about the Drug metabolism (Liver microsome [6]) of the same compound?
A: Its Drug metabolism is “metabolite_detected”.

Q: With `Nc1ncnc2c1c(-c1cccc(OCCOC3CCCC3)c1)cn2[C@H]1C[C@@H](CN2CCC2)C1` as the compound, how does the IC50 [7] read?
A: The IC50 was 490 nM.

Q: With `CC1(C)CC[C@H](COc2cccc(-c3cn([C@H]4C[C@@H](CN5CCC5)C4)c4ncnc(N)c34)c2)O1` as the compound, how does the IC50 [7] read?
A: Its IC50 is 60 nM.

Q: With `CCCOCCOc1cccc(-c2cn([C@H]3C[C@@H](CN4CCC4)C3)c3ncnc(N)c23)c1` as the compound, how does the IC50 [7] read?
A: Its IC50 is 310 nM.

Q: With `CC(C)CCOCCOc1cccc(-c2cn([C@H]3C[C@@H](CN4CCC4)C3)c3ncnc(N)c23)c1` as the compound, how does the IC50 [7] read?
A: Its IC50 is 370 nM.

Q: With `Nc1ncnc2c1c(-c1cccc(OC[C@H]3CCCCO3)c1)cn2[C@H]1C[C@@H](CN2CCC2)C1` as the compound, how does the Drug metabolism (Liver microsome [6]) read?
A: Its Drug metabolism is “metabolite_notdetected”.

Q: What about the IC50 [7] of the same compound?
A: The IC50 was 80 nM.

Q: Which IC50 [7] does the source give for `CC(C)OCCOc1cccc(-c2cn([C@H]3C[C@@H](CN4CCC4)C3)c3ncnc(N)c23)c1` here?
A: Its IC50 is 260 nM.

Q: With `Nc1ncnc2c1c(-c1cccc(OCC3CCCC3)c1)cn2[C@H]1C[C@@H](CN2CCC2)C1` as the compound, how does the IC50 [7] read?
A: The IC50 was 840 nM.

Q: For `CC1(C)CC[C@@H](COc2cccc(-c3cn([C@H]4C[C@@H](CN5CCC5)C4)c4ncnc(N)c34)c2)O1`, which IC50 [1] is on record?
A: The IC50 was over 9000 nM.

Q: And the permeability [8]?
A: Its permeability is “permeable”.

Q: What about the solubility [9] of the same compound?
A: Its solubility is “soluble”.

Q: And the IC50 [10]?
A: Its IC50 is 7400 nM.

Q: What about the IC50 [2] of the same compound?
A: The IC50 was over 10000 nM.

Q: And the IC50 [3]?
A: The IC50 was over 10000 nM.

Q: And the IC50 [11]?
A: The IC50 was over 10000 nM.

Q: What about the IC50 [4] of the same compound?
A: The IC50 was over 9000 nM.

Q: And the Activity (Cytochrome P450 2C9)?
A: The Activity was “Not Active”.

Q: What about the IC50 [7] of the same compound?
A: The IC50 was 9 nM.

Q: What about the Activity (Cytochrome P450 3A4) of the same compound?
A: The Activity was “Not Active”.

Q: What about the IC50 (Ephrin type-B receptor 4) of the same compound?
A: Its IC50 is 690 nM.

Q: And the IC50 [12]?
A: Its IC50 is 970 nM.

Q: What about the IC50 (Insulin receptor) of the same compound?
A: The IC50 was 100 nM.

Q: And the Activity (Cytochrome P450 2D6)?
A: Its Activity is “Not Active”.

Q: With `CC(C)(C)OCCOc1cccc(-c2cn([C@H]3C[C@@H](CN4CCC4)C3)c3ncnc(N)c23)c1` as the compound, how does the IC50 [7] read?
A: Its IC50 is 160 nM.

Q: For `CCOCCOc1cccc(-c2cn([C@H]3C[C@@H](CN4CCC4)C3)c3ncnc(N)c23)c1`, which IC50 [7] is on record?
A: Its IC50 is 630 nM.

Q: With `Nc1ncnc2c1c(-c1cccc(OC[C@H]3CCCO3)c1)cn2[C@H]1C[C@@H](CN2CCC2)C1` as the compound, how does the IC50 [7] read?
A: The IC50 was 110 nM.

Q: With `Nc1ncnc2c1c(-c1cccc(O)c1)cn2[C@H]1C[C@@H](CN2CCC2)C1` as the compound, how does the Drug metabolism (Liver microsome [13]) read?
A: The Drug metabolism was “metabolite_detected”.

Q: Which IC50 [7] does the source give for `Nc1ncnc2c1c(-c1cccc(OCC3CCC3)c1)cn2[C@H]1C[C@@H](CN2CCC2)C1` here?
A: The IC50 was 1900 nM.

Q: Which IC50 [7] does the source give for `Nc1ncnc2c1c(-c1cccc(OCC3CCCCC3)c1)cn2[C@H]1C[C@@H](CN2CCC2)C1` here?
A: The IC50 was 550 nM.

Q: For `Nc1ncnc2c1c(-c1cccc(OCCO)c1)cn2[C@H]1C[C@@H](CN2CCC2)C1`, which IC50 [7] is on record?
A: Its IC50 is 7900 nM.

Q: Which IC50 [7] does the source give for `COCCOc1cccc(-c2cn([C@H]3C[C@@H](CN4CCC4)C3)c3ncnc(N)c23)c1` here?
A: The IC50 was 2000 nM.

Q: For `Nc1ncnc2c1c(-c1cccc(OC[C@@H]3CCCO3)c1)cn2[C@H]1C[C@@H](CN2CCC2)C1`, which IC50 [1] is on record?
A: The IC50 was over 9000 nM.

Q: And the IC50 [2]?
A: The IC50 was over 10000 nM.

Q: And the IC50 [3]?
A: Its IC50 is over 10000 nM.

Q: And the IC50 [4]?
A: Its IC50 is over 9000 nM.

Q: What about the IC50 [5] of the same compound?
A: Its IC50 is 3600 nM.

Q: What about the IC50 [7] of the same compound?
A: Its IC50 is 80 nM.

Q: With `Nc1ncnc2c1c(-c1cccc(OC[C@@H]3CCCCO3)c1)cn2[C@H]1C[C@@H](CN2CCC2)C1` as the compound, how does the IC50 [7] read?
A: Its IC50 is 130 nM.

Q: Which IC50 [7] does the source give for `CC(Oc1cccc(-c2cn([C@H]3C[C@@H](CN4CCC4)C3)c3ncnc(N)c23)c1)c1ccccc1` (mixture of isomers) here?
A: The IC50 was 3700 nM.
